Data: ChEMBL document CHEMBL4308841, “Synthesis, in vitro antiproliferative activity, and kinase inhibitory effects of pyrazole-containing diarylureas and diarylamides” (Eur J Med Chem, 2018)

Experiments:
HL-60(TB) [1] = assay: Growth inhibition of human HL-60(TB) cells incubated for 48 hrs by sulforhodamine B assay; assay type: functional, cell-based; conditions: HL-60, 48 h
SR [2] = assay: Growth inhibition of human SR cells incubated for 48 hrs by sulforhodamine B assay; assay type: functional, cell-based
LOX IMVI = assay: Growth inhibition of human LOXIMVI cells incubated for 48 hrs by sulforhodamine B assay; assay type: functional
M14 = assay: Growth inhibition of human M14 cells incubated for 48 hrs by sulforhodamine B assay; assay type: functional, cell-based; conditions: M14, 48 h
SK-MEL-5 = assay: Growth inhibition of human SK-MEL-5 cells incubated for 48 hrs by sulforhodamine B assay; assay type: functional, cell-based; conditions: SK-MEL-5, 48 h
IGROV-1 = assay: Growth inhibition of human IGROV1 cells incubated for 48 hrs by sulforhodamine B assay; assay type: functional, cell-based; conditions: IGROV-1, 48 h
ACHN = assay: Growth inhibition of human ACHN cells incubated for 48 hrs by sulforhodamine B assay; assay type: functional, cell-based
CAKI-1 = assay: Growth inhibition of human Caki1 cells incubated for 48 hrs by sulforhodamine B assay; assay type: functional, cell-based; conditions: CAKI-1, 48 h
HOP-62 [3] = assay: Growth inhibition of human HOP62 cells assessed as cell growth at 0.01 uM incubated for 48 hrs by sulforhodamine B assay relative to control; assay type: functional; conditions: HOP-62, 48 h, read-out: Activity
SNB-19 = assay: Growth inhibition of human SNB19 cells assessed as cell growth at 0.01 uM incubated for 48 hrs by sulforhodamine B assay relative to control; assay type: functional; conditions: SNB-19, 48 h, read-out: Activity
U-251 = assay: Growth inhibition of human U251 cells assessed as cell growth at 0.01 uM incubated for 48 hrs by sulforhodamine B assay relative to control; assay type: functional; conditions: U-251, 48 h, read-out: Activity
MDA-MB-231 [4] = assay: Growth inhibition of human MDA-MB-231 cells assessed as cell growth at 0.01 uM incubated for 48 hrs by sulforhodamine B assay relative to control; assay type: functional; conditions: MDA-MB-231, 48 h, read-out: Activity
HCC 2998 = assay: Growth inhibition of human HCC2998 cells assessed as cell growth at 0.1 uM incubated for 48 hrs by sulforhodamine B assay relative to control; assay type: functional; conditions: HCC 2998, 48 h, read-out: Activity
OVCAR-5 = assay: Growth inhibition of human OVCAR5 cells assessed as cell growth at 0.1 uM incubated for 48 hrs by sulforhodamine B assay relative to control; assay type: functional; conditions: OVCAR-5, 48 h, read-out: Activity
MDA-MB-231 [5] = assay: Growth inhibition of human MDA-MB-231 cells assessed as cell growth at 0.1 uM incubated for 48 hrs by sulforhodamine B assay relative to control; assay type: functional; conditions: MDA-MB-231, 48 h, read-out: Activity
K562 = assay: Growth inhibition of human K562 cells assessed as cell growth at 1 uM incubated for 48 hrs by sulforhodamine B assay relative to control; assay type: functional; conditions: K562, 48 h, read-out: Activity
NCI-H23 = assay: Growth inhibition of human NCI-H23 cells assessed as cell growth at 1 uM incubated for 48 hrs by sulforhodamine B assay relative to control; assay type: functional; conditions: NCI-H23, 48 h, read-out: Activity
HT-29 = assay: Growth inhibition of human HT-29 cells assessed as cell growth at 1 uM incubated for 48 hrs by sulforhodamine B assay relative to control; assay type: functional; conditions: HT-29, 48 h, read-out: Activity
SF-539 = assay: Growth inhibition of human SF539 cells assessed as cell growth at 1 uM incubated for 48 hrs by sulforhodamine B assay relative to control; assay type: functional; conditions: SF-539, 48 h, read-out: Activity
Malme-3M = assay: Growth inhibition of human MALME-3M cells assessed as cell growth at 1 uM incubated for 48 hrs by sulforhodamine B assay relative to control; assay type: functional; conditions: read-out: Activity
UACC-257 = assay: Growth inhibition of human UACC257 cells assessed as cell growth at 1 uM incubated for 48 hrs by sulforhodamine B assay relative to control; assay type: functional; conditions: UACC-257, 48 h, read-out: Activity
HL-60(TB) [6] = assay: Growth inhibition of human HL-60(TB) cells assessed as cell growth at 100 uM incubated for 48 hrs by sulforhodamine B assay relative to control; assay type: functional; conditions: HL-60, 48 h, read-out: Activity
MOLT-4 = assay: Growth inhibition of human MOLT4 cells assessed as cell growth at 100 uM incubated for 48 hrs by sulforhodamine B assay relative to control; assay type: functional; conditions: MOLT-4, 48 h, read-out: Activity
SR [7] = assay: Growth inhibition of human SR cells assessed as cell growth at 100 uM incubated for 48 hrs by sulforhodamine B assay relative to control; assay type: functional; conditions: read-out: Activity
HOP-62 [8] = assay: Growth inhibition of human HOP62 cells assessed as cell growth at 100 uM incubated for 48 hrs by sulforhodamine B assay relative to control; assay type: functional; conditions: HOP-62, 48 h, read-out: Activity
SF-295 = assay: Growth inhibition of human SF295 cells assessed as cell growth at 100 uM incubated for 48 hrs by sulforhodamine B assay relative to control; assay type: functional; conditions: SF-295, 48 h, read-out: Activity
MDA-MB-435 = assay: Growth inhibition of human MDA-MB-435 cells assessed as cell growth at 100 uM incubated for 48 hrs by sulforhodamine B assay relative to control; assay type: functional; conditions: MDA-MB-435, 48 h, read-out: Activity
OVCAR-8 = assay: Growth inhibition of human OVCAR8 cells assessed as cell growth at 100 uM incubated for 48 hrs by sulforhodamine B assay relative to control; assay type: functional; conditions: OVCAR-8, 48 h, read-out: Activity
[9] = read-out: LC50 (the source's name)
[10] = read-out: pLC50 (the source's name) (converted)

COc1cc(Cl)cc(-c2nn(-c3cccc(NC(=O)c4cccc(C(F)(F)F)c4)c3)cc2-c2ccncc2)c1
GI50 (HL-60(TB) [1]; read-out: GI50): 4.5 µM
LC50 (HL-60(TB) [1]; read-out: LC50): > 100 µM
TGI (HL-60(TB) [1]; read-out: TGI): > 100 µM
GI50 (HL-60(TB) [1]; read-out: pGI50 (converted)): 45.7 µM
LC50 (HL-60(TB) [1]; read-out: pLC50 (converted)): > 100 µM
TGI (HL-60(TB) [1]; read-out: pTGI (converted)): > 100 µM
GI50 (SR [2]; read-out: GI50): 2.48 µM
CC50 (SR [2]; [9]): > 100 µM
TGI (SR [2]; read-out: TGI): > 100 µM
GI50 (SR [2]; read-out: pGI50 (converted)): 3.09 µM
CC50 (SR [2]; [10]): > 100 µM
TGI (SR [2]; read-out: pTGI (converted)): > 100 µM
GI50 (LOX IMVI; read-out: GI50): 1.57 µM
CC50 (LOX IMVI; [9]): > 100 µM
TGI (LOX IMVI; read-out: TGI): > 100 µM
GI50 (LOX IMVI; read-out: pGI50 (converted)): 15.8 µM
CC50 (LOX IMVI; [10]): > 100 µM
TGI (LOX IMVI; read-out: pTGI (converted)): > 100 µM
GI50 (M14; read-out: GI50): 0.09 µM
CC50 (M14; [9]): > 100 µM
TGI (M14; read-out: TGI): > 100 µM
GI50 (M14; read-out: pGI50 (converted)): 6.03 µM
CC50 (M14; [10]): > 100 µM
TGI (M14; read-out: pTGI (converted)): > 100 µM
GI50 (SK-MEL-5; read-out: GI50): 5.43 µM
CC50 (SK-MEL-5; [9]): > 100 µM
TGI (SK-MEL-5; read-out: TGI): > 100 µM
GI50 (SK-MEL-5; read-out: pGI50 (converted)): 5.37 µM
CC50 (SK-MEL-5; [10]): > 100 µM
TGI (SK-MEL-5; read-out: pTGI (converted)): > 100 µM
GI50 (IGROV-1; read-out: GI50): > 100 µM
CC50 (IGROV-1; [9]): > 100 µM
TGI (IGROV-1; read-out: TGI): > 100 µM
GI50 (IGROV-1; read-out: pGI50 (converted)): > 100 µM
CC50 (IGROV-1; [10]): > 100 µM
TGI (IGROV-1; read-out: pTGI (converted)): > 100 µM
GI50 (ACHN; read-out: GI50): 7.21 µM
CC50 (ACHN; [9]): > 100 µM
TGI (ACHN; read-out: TGI): > 100 µM
GI50 (ACHN; read-out: pGI50 (converted)): 7.24 µM
CC50 (ACHN; [10]): > 100 µM
TGI (ACHN; read-out: pTGI (converted)): > 100 µM
GI50 (CAKI-1; read-out: GI50): 3.58 µM
CC50 (CAKI-1; [9]): > 100 µM
TGI (CAKI-1; read-out: TGI): > 100 µM
GI50 (CAKI-1; read-out: pGI50 (converted)): 3.89 µM
CC50 (CAKI-1; [10]): > 100 µM
TGI (CAKI-1; read-out: pTGI (converted)): > 100 µM
growth at 0.01 µM (HOP-62 [3]): 104%
growth at 0.01 µM (SNB-19): 96%
growth at 0.01 µM (U-251): 94%
growth at 0.01 µM (MDA-MB-231 [4]): 102%
growth at 0.1 µM (HCC 2998): 104%
growth at 0.1 µM (OVCAR-5): 94%
growth at 0.1 µM (MDA-MB-231 [5]): 90%
growth at 1 µM (K562): 90%
growth at 1 µM (NCI-H23): 94%
growth at 1 µM (HT-29): 70%
growth at 1 µM (SF-539): 52%
growth at 1 µM (Malme-3M): 82%
growth at 1 µM (UACC-257): 92%
growth at 100 µM (HL-60(TB) [6]): 49%
growth at 100 µM (MOLT-4): 27%
growth at 100 µM (SR [7]): 15%
growth at 100 µM (HOP-62 [8]): 83%
growth at 100 µM (SF-295): 35%
growth at 100 µM (MDA-MB-435): 52%
growth at 100 µM (OVCAR-8): 41%
